Measurements: paper PMC7754465, “Multiparameter Kinetic Analysis for Covalent Fragment Optimization by Using Quantitative Irreversible Tethering (qIT)” (Chembiochem, 2020)

Assay: qIT: rate of reaction with glutathione (intrinsic reactivity)
Assay type: physicochemical
Conditions: fragment 0.5 mM, glutathione 5 μM
Method: Previously we described a fluorescence‐based platform for screening cysteine‐targeting covalent fragments called quantitative irreversible tethering (qIT). ^[19] The method measures and compares the rate of reactions of individual fragments with the protein‐of‐interest (POI) and GSH (Figure 2a and b).
Figure 2 Comparison of previous and current applications of Quantitative irreversible tethering (qIT). a) Overview of rate determination. A cysteine‐containing biomolecule is treated with covalent fragments under pseudo‐first‐order conditions. Reaction progress is followed by discrete measurement of free cysteine concentration by using the fluorogenic probe CPM, and rate constants (k obs) are derived from exponential regression analysis. b) Comparison of the reactivity profile of each fragment with the POI and GSH typically classes them as unreactive, reactive but non‐selective or reactive and selective. c) Quantification of kinetic POI/GSH selectivity facilitates hit identification. d) The observed rate of reaction between the POI and hit fragment is determined at a range of ligand concentrations by using qIT. Subsequent hyperbolic regression analysis is used to derive K i and k inact to facilitate comprehensive covSAR analysis. […]

SMILES: C=CC(=O)N1CCCc2cc(C(=O)OC)ccc21 [compound 1]
- GSH: kobs/[I]: 0.02 M⁻¹ s⁻¹
